Test results taken from article PMC3983056 (PLoS Pathogens, 2014).
“And” between values parts separate entries of the source, which are not always exact repeats. Equal entries are not always repeated. Where two headings read alike, the source gives them in different places.

Experiments:
[1] = system: HIV expressing a luciferase reporter gene (NL4-3-Luc) in latently infected primary CD4 T cells; experiment: microbe, parasite or virus in culture; format: cell-based; settings: continuous 48 hours, cells from three healthy donors, mean ± SD
Text: To assess clinically tested HDACi for their ability to activate HIV from latency, we first employed a previously described in vitro HIV latency model, [30] with several modifications to increase the sensitivity of detection. The assay involves freshly isolated naïve CD4 T cells from healthy donors polarized to a Th0 phenotype, which mimics memory CD4 T cells. These Th0 cells are then infected with HIV expressing a luciferase reporter gene and cultured for an additional 7 to 10 days until a latent infection is established.
Total peripheral blood mononuclear cells (PBMCs) were obtained from healthy HIV-negative donors by leukapheresis (AllCells, Inc, Emeryville, CA). […] Purified naive CD4+ T cells were activated by incubation with anti-CD3/CD28 magnetic Dynabeads (1 bead: 2 cells ratio, Life Technologies), 1 µg/ml anti-IL-4 (R&D Systems, Minneapolis, MN), 2 µg/ml anti-IL-12p70 antibodies (R&D Systems), and 10 ng/ml TGF-β (R&D Systems) for 3 days, [59]. Following the removal of anti-CD3/CD28 beads and antibodies, cells were maintained in 30 U/ml IL-2 (Life Technologies) for 2 days. Cells were then infected with NL4.3-Luc in the presence of 50 µg/ml DEAE for 3 hours. Cells were maintained in the continued presence of 30 U/ml IL-2 throughout the infection and subsequent rest period with culture medium with fresh IL-2 replaced every 2–3 days. Seven days post-infection, 20 µl of latently infected cells were dispensed into 384 well plates using a MicroFlo dispenser (Biotek Insturments, VT) at 10,000 cells/well containing 100 nl of compound solutions delivered by the Echo acoustic-based liquid dispenser (Labcyte, Sunnyvale, CA). After a 48-hour incubation, 16 µl/well BriteGlo (Promega, Madison, WI) was added and luminescence measured using the Envision plate reader (Perkin Elmer, Waltham, MA). Compound-associated cytotoxicity was determined in latently infected cells in parallel with the virus activation assay. Cells were incubated with compounds for 48 hours at 37°C, and cell viability was determined using Cell Titer Glo reagent (Promega).

[2] = Compound-associated cytotoxicity in latently infected cells (Cell Titer Glo); format: cell-based, human; settings: human, latently infected (NL4.3-Luc) primary CD4+ T cells, continuous 48 hours, 50% cell viability reduction, three donors, mean ± SD
Protocol: Total peripheral blood mononuclear cells (PBMCs) were obtained from healthy HIV-negative donors by leukapheresis (AllCells, Inc, Emeryville, CA). Naive CD4+ T cells were purified by negative selection using EasySep magnetic beads (StemCells, Inc, Vancouver, Canada) and cultured in RPMI with 10% fetal bovine serum (FBS), penicillin/streptomycin, 1% nonessential amino acids (Life Technologies, Carlsbad, CA), 1% sodium pyruvate (Life Technologies) and 495 nM beta-mercaptoethanol (Sigma Aldrich, St. Louis, MO) in a 37°C, 5% CO2 incubator. Purified naive CD4+ T cells were activated by incubation with anti-CD3/CD28 magnetic Dynabeads (1 bead: 2 cells ratio, Life Technologies), 1 µg/ml anti-IL-4 (R&D Systems, Minneapolis, MN), 2 µg/ml anti-IL-12p70 antibodies (R&D Systems), and 10 ng/ml TGF-β (R&D Systems) for 3 days, [59]. Following the removal of anti-CD3/CD28 beads and antibodies, cells were maintained in 30 U/ml IL-2 (Life Technologies) for 2 days. Cells were then infected with NL4.3-Luc in the presence of 50 µg/ml DEAE for 3 hours. Cells were maintained in the continued presence of 30 U/ml IL-2 throughout the infection and subsequent rest period with culture medium with fresh IL-2 replaced every 2–3 days. Seven days post-infection, 20 µl of latently infected cells were dispensed into 384 well plates using a MicroFlo dispenser (Biotek Insturments, VT) at 10,000 cells/well containing 100 nl of compound solutions delivered by the Echo acoustic-based liquid dispenser (Labcyte, Sunnyvale, CA). After a 48-hour incubation, 16 µl/well BriteGlo (Promega, Madison, WI) was added and luminescence measured using the Envision plate reader (Perkin Elmer, Waltham, MA). Compound-associated cytotoxicity was determined in latently infected cells in parallel with the virus activation assay. Cells were incubated with compounds for 48 hours at 37°C, and cell viability was determined using Cell Titer Glo reagent (Promega).

[3] = system: latent HIV in resting CD4 T cells from HIV-infected patients on suppressive cART; format: cell-based; settings: for HIV RNA avg: Figure 4, 25 nM PNB, one value per donor; for persistence of intracellular HIV RNA induction: pulse RMD 4 hours, VOR 24 hours, PNB 24 hours, 6 to 48 hours
Protocol: (§1) To examine the kinetics of HIV induction, we analyzed cell-associated viral RNA levels at 6, 12, 24, and 48 hours after treatment initiation.
(§2) Lysates were filtered through a Qiashredder (Qiagen).

[4] = system: HIV; settings: cited from earlier work
[5] = system: total class I and II HDAC enzyme activity in resting CD4 T cells; settings: pulse RMD 4 hours, VOR 24 hours, PNB 24 hours, 6 to 48 hours
Protocol: Resting CD4 T cells obtained from HIV-infected patients on suppressive cART were incubated with serial dilutions of HDACi in 96-well plates at 10,000 cells/well for indicated time and then lysed by repeated freezing and thawing. Total cellular HDAC activity was measured using the HDAC-Glo I/II assay kit (Promega) according to the manufacturer's protocol.

[6] = system: latently infected cells expressing Bcl2; design: method as in PMID 22406268; settings: in vitro latency model with ectopic Bcl2; cited from earlier work
[7] = system: HIV gag-pol RNA from resting CD4 T cells of a cART-suppressed patient; experiment: Single-genome sequencing of HIV RNA in culture supernatants; format: cell-based; settings: 2 µM SAHA, day 7
Text: In parallel, we assessed the sequence diversity of HIV proviruses integrated in genomic DNA of resting CD4 T cells from the same culture.
Figure 8 Phylogenetic analysis of HIV sequences expressed ex vivo following the latency reversal. […] Single-genome sequencing was used to analyze patient HIV proviral DNA and plasma RNA at the initiation of treatment (day 0), together with the ex vivo induced HIV RNA in cell culture supernatants at the end of treatment (day 7). […] Identified HIV DNA and RNA sequences were aligned and the phylogenetic tree was constructed using Clustal W and MEAG5.
Single-genome sequencing of a portion of HIV-1 gag-pro-pol amplified from cell culture supernatants or cellular DNA extracts was performed as previously described [34]–[36]. Sequences were aligned using ClustalW and neighbor-joining phylogenetic analysis was performed using MEGA5. Trees were rooted on the subtype B consensus sequence (www.hiv.lanl.gov).

[8] = system: latent HIV in memory CD4 T cells from HIV-infected patients on suppressive cART; experiment: Ex vivo activation of HIV transcription, cell-associated HIV RNA, memory CD4 T cells; format: cell-based; settings: memory CD4 T cells, 1 µM VOR
Protocol: as §1, §2

[9] = system: latent HIV in memory CD4 T cells from HIV-infected patients on suppressive cART
Text: We used HIV RNA in cell culture supernatants as a surrogate marker for virion release from treated cells. We assumed that extracellular virions would accumulate over the course of several days; therefore, the duration of culture was extended to 6 days to maximize assay sensitivity.
(§3) HIV-infected patients participating in the study were selected based on sustained plasma viral load suppression (<50 copies/ml for >12 months), CD4 counts (>350 cells/µL), and absence of co-infection with hepatitis B or C virus (Supplementary Table S1). Clinical laboratory results were reconfirmed 2 weeks before leukapheresis or blood draw. Leukapheresis was conducted for 3–4 hours, and samples were processed within 2 hours after collection. The leukapheresis product was diluted 1∶1 with PBS and layered over Ficoll for isolation of PBMCs. […] Resting CD4 T cells were isolated by first enriching total CD4 T cells (StemCell Technologies) and subsequently depleting HLA-DR-, CD25-, and CD69-positive cells via negative selection (Miltenyi Biotec, Auburn, CA).
(§4) To assess HIV activation by HDACi, up to 5 million CD4 T cells were plated in 24-well plates in 2.5 ml of media, supplemented with antiretrovirals (ARVs) (100 nM elvitegravir and 100–300 nM efavirenz) for the entire duration of culture incubation. HDACi were added at specified concentrations on day 0 and cells or culture supernatants were harvested for the analysis of HIV RNA at the indicated time points (6–48 hours or 6–7 days, respectively). For HDACi pulse treatment, cultures were washed twice using ARV-containing media at 4 or 24 hours after addition of HDACi and incubated with ARVs until harvest. To measure HIV RNA levels, 1 ml of culture supernatant was analyzed by a robotic COBAS AmpliPrep/TaqMan system (Roche Diagnostics, Indianapolis, IN), which extracts total nucleic acid and quantifies HIV RNA in copies per milliliter using the HIV-1 Test, v2.0 kit (Roche Diagnostics). For the measurement of cell-associated HIV RNA levels, cells were washed with PBS, counted, and lysed (Qiagen RLT buffer, 400 µl for every 2 million cells; Qiagen, Venlo, Netherlands). Lysates were filtered through a Qiashredder (Qiagen). Total RNA was prepared from the lysates (400 µl) using a robotic system (QIAsymphony, Qiagen) that incorporates a DNase I digestion step to eliminate cellular DNA. The resulting total RNA was eluted with 200 µl of buffer, diluted to 1 ml with nuclease-free water, and analyzed by COBAS using the HIV-1 Test v2.0 kit. Preparations of both cell-associated RNA and supernatant total nucleic acids were tested for potential contamination with HIV DNA and/or host DNA by performing the PCR amplification in the presence and absence of reverse transcriptase and by a detection of GAPDH-encoding host DNA sequence.
(§5) HIV RNA-induction experiments were conducted using 5 to 6 replicates for every experimental condition, including vehicle-treated controls. Fold induction in HIV RNA levels was calculated as a ratio of mean signals from compound-treated and vehicle (DMSO)-treated control samples from the same donor under identical conditions. […] For experiments using blood-derived resting CD4 T cells, culture supernatants from 3 replicate wells were combined and analyzed using the COBAS system.

[10] = system: latent HIV in resting CD4 T cells from HIV-infected patients on suppressive cART; experiment: Ex vivo release of extracellular HIV RNA into culture supernatants, resting CD4 T cells; format: cell-based; settings: resting CD4 T cells
Protocol: as §3, §4, §5

[11] = Cell culture medium protein binding by equilibrium dialysis, HPLC/mass spectrometry; format: in vitro ADME
[12] = system: memory CD4 cells from HIV-infected patients; experiment: Viability of primary memory CD4 cells (Cell TiterGlo, 6 days); format: cell-based, human; settings: same incubation period (6 days), data not shown
Protocol: Cell viability was determined using a Cell TiterGlo reagent 6 days after the initiation of treatment and is expressed as a percentage of cell viability relative to control vehicle-treated memory CD4 cells from the same donors. The data represent mean +/− S.D. from three independent donors. (TIF) Click here for additional data file.

[13] = Human immunodeficiency virus 1, NL43, CD4+ T, 48 h

CCN(CC)Cc1ccc2cc(COC(=O)Nc3ccc(C(=O)NO)cc3)ccc2c1 [Givinostat, givinostat]
EC50 [1, 13]: 95.8 ± 20.3 nM | CC50 at 48 h [2]: 24000 nM

Nc1ccccc1NC(=O)c1ccc(CNc2nccc(-c3cccnc3)n2)cc1 [Mocetinostat, mocetinostat]
EC50 [1, 13]: 13600 nM | CC50 at 48 h [2]: 10100 nM

Cc1[nH]c2ccccc2c1CCNCc1ccc(/C=C/C(=O)NO)cc1 [PNB, panobinostat]
EC50 [1, 13]: 10 nM | EC50 [1]: 10.1 ± 1 nM | HIV RNA avg ([3]; 6 hours): 4342 copies/mil cells and 2414 copies/mil cells | HIV RNA avg ([3]; 24 hours): 11600 copies/mil cells and 5606 copies/mil cells | HIV RNA avg ([3]; 48 hours): 1815 copies/mil cells and 783 copies/mil cells | persistence of intracellular HIV RNA induction ([3]; resting CD4 T cells): transient and diminished after 24 hours | HIV transcription and viremia in peripheral blood ([4]; multiple doses of PNB, HIV-positive patients on suppressive cART): induce intracellular HIV transcription and low-level viremia | CC50 at 48 h [2]: > 2500 nM | persistence of inhibition of cell-associated HDAC activity [5]: transient and decreased after 24 hours of incubation

CCCCc1nc2cc(/C=C/C(=O)NO)ccc2n1CCN(CC)CC [SB939, pracinostat]
EC50 [1, 13]: 212 ± 14 nM | CC50 at 48 h [2]: > 50000 nM

O=C(CCCCCCC(=O)Nc1ccccc1)NO [VOR, suberoylanilide hydroxamic acid]
cell-associated HIV RNA at 48 hours ([3]; resting CD4 T cells, 1 µM VOR): decreased by 48 hours to levels detected in vehicle-treated cells | increase in intracellular HIV RNA levels versus vehicle ([3]; resting CD4 T cells, 1 µM VOR, 24-hour treatment): rapid, but transient and less-pronounced activation | persistence of intracellular HIV RNA induction ([3]; resting CD4 T cells): transient and diminished after 24 hours | cell death after HIV activation [6]: does not lead to cell death | sequences of HIV RNA recovered in culture supernatants [7]: No HIV RNA sequences were recovered | effect on total proviral DNA in peripheral CD4 T cells ([4]; multiple-dose (14-day) trial of VOR): no apparent effect | mean increase in cell-associated HIV RNA levels ([4]; once-daily VOR for 14 consecutive days, 20 patients): ~3 fold | mean increase in HIV RNA levels in resting CD4 T cells ([4]; single 400 mg dose of VOR, 8 HIV-infected patients on cART): 4.8 fold | increases in the level of plasma viremia ([4]; single-dose and 14-day VOR studies): not observed | cell-associated HIV RNA at 48 hours [8]: decreased by 48 hours to levels detected in vehicle-treated cells | HIV RNA in culture supernatants ([9]; memory CD4 T cells, 1 µM VOR continuous 6 days, two patients): no significant increase | extracellular HIV RNA in culture supernatants ([9]; memory CD4 T cells, 0.5 and 1 µM VOR for 24 hours, day 6): lack of HIV RNA release | extracellular HIV RNA versus untreated controls ([10]; 0.5 µM VOR continuous 6 days): did not increase extracellular HIV RNA significantly | patient-derived cultures with measurable increase of extracellular HIV RNA ([10]; 1 µM VOR continuous 6 days): 3 of 7 | CC50 at 48 h [2]: > 25000 nM | fraction unbound [11]: 0.68

CN(CC[C@H](N)CC(=O)N[C@H]1C=C[C@H](n2ccc(N)nc2=O)O[C@@H]1C(=O)O)C(=N)N [blasticidine]
release of HIV RNA into cell culture supernatants ([9]; highly cytotoxic control, data not shown): did not lead to release of detectable levels of HIV RNA | cell death [12]: > 80%
